According to the NIST ThermoML archive (doi:10.1021/je5003779):

Legend:
[1] = refractive index (other wavelength) (dimensionless); details: 101.3 kPa, Liquid, Wavelength=632.8 nm, Standard Abbe refractometry
[2] = heat capacity at constant pressure per volume; xn = mol fraction of the nth substance listed; details: 101 kPa, Liquid, Differential Scanning Calorimeter, x1 = 0.133
[3] = refractive index (other wavelength) (dimensionless); xn = mol fraction of the nth substance listed; details: 296.27 K, 101 kPa, Liquid, Wavelength=632.8 nm, Standard Abbe refractometry

CCn1cc[n+](C)c1.O=S(=O)([N-]S(=O)(=O)C(F)(F)F)C(F)(F)F
[1]
Details	refractive index
285.03 K	1.4252
287.17 K	1.4246
288.97 K	1.4242
290.28 K	1.4238
291.11 K	1.4236
292.19 K	1.4233
293.16 K	1.423
294.21 K	1.4227
295.18 K	1.4225
297.26 K	1.4219

CCn1cc[n+](C)c1.O=S(=O)([N-]S(=O)(=O)C(F)(F)F)C(F)(F)F + CCCO
Details	heat capacity [J/K/m3]	refractive index
[2], 295 K	2448000	–
[2], 296 K	2164000	–
[2], 297 K	2118000	–
[2], 298 K	2122000	–
[2], 299 K	2105000	–
[2], 300 K	2103000	–
[2], 301 K	2101000	–
[2], 302 K	2082000	–
[2], 303 K	2087000	–
[2], 304.01 K	2092000	–
[2], 305 K	2090000	–
[2], 306 K	2090000	–
[2], 307 K	2094000	–
[2], 308 K	2095000	–
[2], 309 K	2098000	–
[2], 310 K	2097000	–
[2], 311 K	2098000	–
[2], 312 K	2102000	–
[2], 313 K	2103000	–
[2], 314 K	2103000	–
[2], 315 K	2108000	–
[2], 316 K	2108000	–
[2], 317 K	2111000	–
[2], 318 K	2113000	–
[2], 319 K	2114000	–
[2], 320 K	2117000	–
[2], 321 K	2117000	–
[2], 322 K	2121000	–
[2], 323 K	2124000	–
[2], 324 K	2125000	–
[2], 325 K	2124000	–
[2], 326 K	2129000	–
[2], 327 K	2131000	–
[2], 328 K	2133000	–
[2], 329.01 K	2135000	–
[2], 330 K	2134000	–
[2], 331 K	2139000	–
[3], x1 = 0.021	–	1.3854
[3], x1 = 0.056	–	1.3896
[3], x1 = 0.097	–	1.3935
[3], x1 = 0.142	–	1.3971
[3], x1 = 0.149	–	1.3977
[3], x1 = 0.192	–	1.4006
[3], x1 = 0.243	–	1.4036
[3], x1 = 0.306	–	1.4064
[3], x1 = 0.397	–	1.4099
[3], x1 = 0.502	–	1.4131
[3], x1 = 0.699	–	1.4174
[3], x1 = 0.855	–	1.4199
[3], x1 = 1	–	1.4222

CCCO [propan-1-ol]
[1]
Details	refractive index
284.73 K	1.387
286.91 K	1.3861
288.21 K	1.3856
289.24 K	1.3851
290.26 K	1.3847
291.26 K	1.3843
292.59 K	1.3837
293.69 K	1.3833
296.27 K	1.3823

CCCO [propan-1-ol] + CCn1cc[n+](C)c1.O=S(=O)([N-]S(=O)(=O)C(F)(F)F)C(F)(F)F
Details	refractive index
[3], x2 = 0	1.3823
